Experiment: stability in mouse liver homogenate
Assay type: in vitro ADME
Settings: remaining compound after 24 h
Experimental: HSA binding assay. The assessment of compounds binding to HSA was performed by incubating a fixed concentration of the compound with different concentrations of immobilized HSA, using the TRANSILXL HSA Binding Kit (TMP-0210- 2096, Sovicell). An 8-well unit of the TRANSIL assay plate was used for each compound : six wells contain increasing concentrations of HSA immobilized on silica beads suspended in PBS at pH 7.4, and two wells contain buffer only and serve as references to account for nonspecific binding. The TRANSIL assay plate was thawed for 3 h at rt and centrifuged at 750g for 5 s. […] After this time, the plate was centrifuged at 750gfor 10 min, and 50 μL of the supernatants were transferred for analytical quantification by HPLC-MS using selected ion monitoring (SIM). The binding percentage was calculated from the remaining free compound concentration in the supernatant of each well, using the spreadsheet and algorithms supplied with the kit.
Stability in mouse serum. […] Supernatants were then analyzed by HPLC-MS using SIM mode, and quantification was estimated by using the peak area integration normalized with an internal standard.
Stability assay in mouse liver homogenate. Stability of test compounds and reference compound propranolol was determined by incubation in liver homogenates following previously reported procedure. […]

CS(=N)(=O)c1ccc(-c2ccccc2OCF)cc1 (stereo not shown) [Compound 26, 2-(Fluoromethoxy)-4′-(S-methanesulfonimidoyl)-1,1′-biphenyl]
liver homogenate stability (%): 65%
